Test results reported in PMC3115046, “Analyzing Airway Inflammation with Chemical Biology: Dissection of Acidic Mammalian Chitinase Function with a Selective Drug-like Inhibitor” (Chemistry & Biology, 2011).

Key:
allergen-challenged mice = settings: ref Matsumoto et al., 2009, cited from earlier work
murine CHIT1 [mCHIT1] = settings: read-out: IC50 murine CHIT1; ref Zheng et al., 2005; Boot et al., 2001; cited from earlier work
[1] = target: human chitotriosidase (hCHIT1) (Homo sapiens, UniProt Q13231); assay: Chitinase activity assay with fluorescent 4-MU substrate, hCHIT1; format: biochemical; settings: read-out: IC50 against hCHIT1
[2] = system: Aspergillus fumigatus chitinase B1 (AfChiB1); parameters: method as in Schuttelkopf et al., 2011; settings: ref Schuttelkopf et al., 2011; cited from earlier work

Sequence of human chitotriosidase (hCHIT1) (Q13231 22-466): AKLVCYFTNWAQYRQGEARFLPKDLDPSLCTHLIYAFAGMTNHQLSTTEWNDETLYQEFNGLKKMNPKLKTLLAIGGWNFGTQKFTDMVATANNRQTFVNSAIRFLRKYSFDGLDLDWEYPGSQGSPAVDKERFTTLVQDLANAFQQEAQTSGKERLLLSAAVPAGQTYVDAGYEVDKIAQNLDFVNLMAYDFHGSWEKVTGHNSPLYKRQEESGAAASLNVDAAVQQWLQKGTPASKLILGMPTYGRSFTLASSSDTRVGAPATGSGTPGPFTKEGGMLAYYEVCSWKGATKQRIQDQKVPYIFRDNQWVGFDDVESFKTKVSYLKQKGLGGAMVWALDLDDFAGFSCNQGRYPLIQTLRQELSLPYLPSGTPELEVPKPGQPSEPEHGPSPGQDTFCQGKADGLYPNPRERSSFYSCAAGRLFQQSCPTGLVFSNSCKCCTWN

| SMILES | eosinophilia in allergen-challenged mice (allergen-challenged mice; Zhu et al., 2004) | IC50 (murine CHIT1 [mCHIT1]) [µM] | IC50 [1] [µM] | ligand efficiency against AfChiB1 [2] [kcal·mol^−1·atom^−1] | allergen or IL-13-induced airway hyperresponsiveness (allergen-challenged mice; Zhu et al., 2004) | neutrophil recruitment in allergic mice (allergen-challenged mice) |
| --- | --- | --- | --- | --- | --- | --- |
| CC(=O)N[C@H]1[C@H](O[C@H]2[C@@H](O)[C@@H](NC(C)=O)[C@H](O[C@H]3[C@H](O)[C@H]4N=C(N(C)C)O[C@H]4[C@@H]3CO)O[C@@H]2CO)O[C@H](CO)[C@@H](O)[C@H]1O [allosamidin] | significantly reduced | ~0.05 |  |  |  |  |
| Cn1cnc2c1c(=O)n(CCCn1c(=O)c3c(ncn3C)n(C)c1=O)c(=O)n2C [bisdionin C] |  |  | 8.3 ± 0.7 | −0.41 |  |  |
| CNC1=N[C@@H]2[C@@H](O)[C@H](O[C@@H]3O[C@H](CO)[C@@H](O[C@@H]4O[C@H](CO)[C@@H](O)[C@@H](O)[C@H]4NC(C)=O)[C@@H](O)[C@H]3NC(C)=O)[C@@H](CO)[C@@H]2O1 [demethylallosamidin] | significantly reduced |  |  |  | reduces | did not result in neutrophil recruitment |
